# Data as given in PMC8753592, “Long-acting capsid inhibitor protects macaques from repeat SHIV challenges” (Nature, 2021).
# “And” between values parts separate entries of the source, which are not always exact repeats. Identical values can stand only once. Like-named read-outs stand apart in the source and are kept apart here.
# Tests used:
# SHIV-SF162P3 = assay: microbe, parasite or virus in culture; type: cell-based, SHIV (in rhesus macaque, Macaca mulatta, PBMCs); settings: for % Virus Production, replicates n1–n3: experiments 1–7; for % Virus Production, MEAN: per experiment 1–7
# Protocol: Freshly isolated PBMCs from three male rhesus macaque (M. mulatta) donors of Indian origin (HumanCells Biosciences) were cultured in RPMI-1640 cell culture medium (Life Technologies) supplemented with 10% heat-inactivated FBS (Hyclone), 2 mM glutamine and 100 U ml^−1 penicillin plus 100 μg ml^−1 streptomycin (complete RPMI). Before their use in the antiviral assays, rhesus PBMCs from three independent donors were pooled and activated at a density of 3 × 10^6 cells per ml for 72 h at 37 °C by the addition of 1 μg ml^–1 phytohemagglutinin (PHA, Sigma-Aldrich) and 50 U ml^−1 recombinant human interleukin-2 (IL-2) (Roche Diagnostics).
# PHA/IL-2-stimulated rhesus PBMCs were infected in bulk culture with SHIV-SF162P3 at a concentration of 130 pg of p27 equivalent per million PBMCs. The cells were maintained in suspension by gently rocking the cultures mixed with virus inoculum for 3 h at 37 °C. The cells were then pelleted by centrifugation at 500g for 5 min, washed twice with complete RPMI to remove any unadsorbed virus and seeded into 96-well plates at a cell density of 2 × 10^5 cells per well in 100 μl. […] The cultures were incubated in a 5% CO2 incubator at 37 °C for 7 days. Cell-free supernatants derived from the PBMC cultures were harvested 7 days after infection, the amount of SHIV present was quantified using an SIV p27 antigen-capture ELISA assay (5436, Advanced Bioscience Laboratories) performed according to the manufacturer’s protocol, and the data were acquired using SoftMax Pro 6.3.1 software (Molecular Devices).
# [1] = Pilot pharmacokinetic study, single subcutaneous administration; settings: individual animals
# Protocol: All study protocols were reviewed and approved by the Covance Laboratories Institutional Animal Care and Use Committee (IACUC).
# Rhesus plasma samples were stored frozen at −80 °C. For analysis, the samples were thawed, and a 50-µl aliquot of each sample was treated with 200 µl acetonitrile containing a generic internal small-molecule standard. After precipitation of the protein component, a 100-µl aliquot of the supernatant was transferred to a clean 96-well plate and was mixed with 200 µl water. A 20-μl aliquot of the above solution was then injected into a Q-Exactive high-resolution mass spectrometer (Thermo Scientific) with electrospray ionization in positive mode. Quantification was performed with a Thermo Scientific Xcalibur 4.0.27.19 using accurate masses (<5 parts per million mass error; [M + H]^+ of 958.1853 for GC-CA1 and 758.3270 for the internal standard, respectively)[22],[23]. […] Pharmacokinetic parameters, including the area under the plasma concentration–time curve from time 0 to the last quantifiable time point (AUClast), the area under the plasma concentration–time curve from time 0 to infinity (AUCinf), the maximum concentration (Cmax), the time to reach the observed peak plasma concentration (tmax) and the terminal half-life (t1/2), were determined by non-compartmental analysis using Phoenix WinNonlin 6.4 build 8.1.0.3530 software (Pharsight).
smiles,measurement,setting,value
CC(C)(C#Cc1ccc(-c2ccc(Cl)c3c(NS(=O)(=O)C4CC4)nn(CC(F)F)c23)c([C@H](Cc2cc(F)cc(F)c2)NC(=O)Cn2nc(C(F)F)c3c2C(F)(F)[C@@H]2C[C@H]32)n1)S(C)(=O)=O [GS-CA1],"% Virus Production, replicates n1–n3",SHIV-SF162P3; 0.011 nM,122% and 104% and 99% and 93% and 127% and 160% and 82% and 121% and 88% and 87% and 68%
same,"% Virus Production, MEAN",SHIV-SF162P3; 0.011 nM,108% and 126% and 97% and 83% and 121% and 68%
same,"% Virus Production, replicates n1–n3",SHIV-SF162P3; 0.034 nM,106% and 78% and 72% and 136% and 114% and 75% and 116% and 105% and 181% and 64% and 89% and 82% and 53% and 93%
same,"% Virus Production, replicates n1–n3",SHIV-SF162P3; 0.103 nM,127% and 124% and 79% and 73% and 103% and 118% and 130% and 152% and 105% and 82% and 99% and 121% and 76% and 71%
same,"% Virus Production, MEAN",SHIV-SF162P3; 0.103 nM,110% and 85% and 133% and 95% and 89% and 99% and 67%
same,"% Virus Production, replicates n1–n3",SHIV-SF162P3; 0.309 nM,75% and 74% and 102% and 149% and 120% and 72% and 78% and 94% and 103% and 109% and 66%
same,"% Virus Production, replicates n1–n3",SHIV-SF162P3; 0.926 nM,65% and 37% and 36% and 39% and 31% and 20% and 16% and 18% and 23% and 70% and 14% and 22%
same,"% Virus Production, replicates n1–n3",SHIV-SF162P3; 2.778 nM,0.408% and 2% and 2.34% and 1.77% and 1.55% and 0.489% and 2.2% and 1.37% and 0.76% and 0.799%
same,"% Virus Production, MEAN",SHIV-SF162P3; 2.778 nM,1.61% and 1.79% and 1.35% and 1.16% and 2.6% and 1.28% and 0.0528%
same,"% Virus Production, replicates n1–n3",SHIV-SF162P3; 8.333 nM,1.76% and 1% and 0.517% and 0.425% and 0.705% and 0.145% and 0.0164% and 0.262% and 1.4% and 0.22% and 0.682% and 0.142%
same,"% Virus Production, MEAN",SHIV-SF162P3; 8.333 nM,1.08% and 0.425% and 0.559% and 0.348% and 1.87% and 0.078% and 0.398%
same,"% Virus Production, replicates n1–n3",SHIV-SF162P3; 25.000 nM,-0.0465% and -0.0193% and 0.798% and -0.276% and 0.164% and 0.276% and 1% and 0.434% and -0.106% and 0.12% and 0.292% and 0.064% and 0.0863%
same,"% Virus Production, MEAN",SHIV-SF162P3; 25.000 nM,0.244% and 0.0545% and 0.436% and 0.159% and -0.387% and 0.675% and 0.293%
same,Rhesus PBMC paEC95,SHIV-SF162P3; EC95 × rhesus plasma shift,30.2 nM and 30.2 ± 2.5 nM and 30 nM
same,EC50,"SHIV-SF162P3; Simian immunodeficiency virus, PBMC, in Macaca mulatta, 168 h, read-out: EC50, rhesus PBMCs, SHIV-SF162P3, mean of 7 assays, SIV p27 ELISA day 7 post-infection",0.72 nM
same,EC50,"SHIV-SF162P3; Simian immunodeficiency virus, PBMC, in Macaca mulatta, 168 h, read-out: SHIV162P3-rhPBMC-EC50, individual experiments, single experiments n1–n7, SIV p27 ELISA day 7",0.66 nM
same,Rhesus PBMC EC95,SHIV-SF162P3; calculated from SHIV EC50 and Hill slope: EC50 × (95/5)^1/n,1.91 nM and 1.91 ± 0.16 nM and 1.9 nM
same,EC50,"SHIV-SF162P3; read-out: SHIV162P3-rhPBMC-EC50, individual experiments, single experiments n1–n7, SIV p27 ELISA day 7",0.71 nM and 0.777 nM and 0.868 nM and 0.535 nM and 0.74 nM (2×) and 0.661 nM and 0.78 nM and 0.714 nM and 0.87 nM and 0.54 nM
same,Plasma GS-CA1 level,"[1]; 100 mg/kg s.c., 0.006 weeks post dose, unit not given (Fig. 1b in nM)",41.2 and 93.2
same,Plasma GS-CA1 level,"[1]; 100 mg/kg s.c., 0.018 weeks post dose, unit not given",240
same,Plasma GS-CA1 level,"[1]; 100 mg/kg s.c., 0.047 weeks post dose, unit not given",588
same,Plasma GS-CA1 level,"[1]; 100 mg/kg s.c., 0.14 weeks post dose, unit not given",2054
same,Plasma GS-CA1 level,"[1]; 100 mg/kg s.c., 0.29 weeks post dose, unit not given",2247
same,Plasma GS-CA1 level,"[1]; 100 mg/kg s.c., 0.43 weeks post dose, unit not given",1217
same,Plasma GS-CA1 level,"[1]; 100 mg/kg s.c., 0.57 weeks post dose, unit not given",649
same,Plasma GS-CA1 level,"[1]; 100 mg/kg s.c., 1 week post dose, unit not given",448
same,Plasma GS-CA1 level,"[1]; 100 mg/kg s.c., 2 weeks post dose, unit not given",254
same,Plasma GS-CA1 level,"[1]; 100 mg/kg s.c., 3 weeks post dose, unit not given",125
same,Plasma GS-CA1 level,"[1]; 100 mg/kg s.c., 4 weeks post dose, unit not given",115
same,Plasma GS-CA1 level,"[1]; 100 mg/kg s.c., 5 weeks post dose, unit not given",92.7
same,Plasma GS-CA1 level,"[1]; 100 mg/kg s.c., 6 weeks post dose, unit not given",65.1
same,Plasma GS-CA1 level,"[1]; 100 mg/kg s.c., 8 weeks post dose, unit not given",43.2
same,Plasma GS-CA1 level,"[1]; 100 mg/kg s.c., 10 weeks post dose, unit not given",23.6
same,Plasma GS-CA1 level,"[1]; 100 mg/kg s.c., 12 weeks post dose, unit not given",11.5
same,Plasma GS-CA1 level,"[1]; 100 mg/kg s.c., 14 weeks post dose, unit not given",15.5 and 6.3
same,Plasma GS-CA1 level,"[1]; 100 mg/kg s.c., 16 weeks post dose, unit not given",10.4 and 5.1
same,Plasma GS-CA1 level,"[1]; 100 mg/kg s.c., 18 weeks post dose, unit not given",10.7 and 2.4
same,Plasma GS-CA1 level,"[1]; 300 mg/kg s.c., 0.006 weeks post dose, unit not given (Fig. 1b in nM)",74.8 and 53.9
same,Plasma GS-CA1 level,"[1]; 300 mg/kg s.c., 0.018 weeks post dose, unit not given",137 and 203 and 314
same,Plasma GS-CA1 level,"[1]; 300 mg/kg s.c., 0.047 weeks post dose, unit not given",205 and 325 and 1054
same,Plasma GS-CA1 level,"[1]; 300 mg/kg s.c., 0.14 weeks post dose, unit not given",3062 and 1232 and 2737
same,Plasma GS-CA1 level,"[1]; 300 mg/kg s.c., 0.29 weeks post dose, unit not given",3422 and 1597 and 1786
same,Plasma GS-CA1 level,"[1]; 300 mg/kg s.c., 0.43 weeks post dose, unit not given",1984 and 1345
same,Plasma GS-CA1 level,"[1]; 300 mg/kg s.c., 0.57 weeks post dose, unit not given",1342 and 1428
same,Plasma GS-CA1 level,"[1]; 300 mg/kg s.c., 1 week post dose, unit not given",938 and 936
same,Plasma GS-CA1 level,"[1]; 300 mg/kg s.c., 2 weeks post dose, unit not given",1435 and 680 and 798
same,Plasma GS-CA1 level,"[1]; 300 mg/kg s.c., 3 weeks post dose, unit not given",467 and 939 and 816
same,Plasma GS-CA1 level,"[1]; 300 mg/kg s.c., 4 weeks post dose, unit not given",461 and 659
same,Plasma GS-CA1 level,"[1]; 300 mg/kg s.c., 5 weeks post dose, unit not given",226 and 377 and 512
same,Plasma GS-CA1 level,"[1]; 300 mg/kg s.c., 6 weeks post dose, unit not given",291 and 348 and 602
